Patent US9505786B2, “Substituted annulated triazines and use thereof” (BAYER INTELLECTUAL PROPERTY GMBH, priority 2012, dated 2016)
pIC50: −log10 of the molar value.

Experiments:
[1] = system: aorta rings; assay: Vasorelaxant effect in vitro (phenylephrine-contracted aorta rings); settings: Oryctolagus cuniculus, rabbit aorta rings, organ bath, phenylephrine contraction; read-out: IC50 (concentration needed to reduce the phenylephrine contraction by 50%)
Protocol: B-1. Vasorelaxant Effect In Vitro
Rabbits are stunned by a blow to the neck and exsanguinated. The aorta is removed, freed from adhering tissue and divided into rings of a width of 1.5 mm. The rings are placed individually under an initial tension in 5 ml organ baths with Krebs-Henseleit solution which is at 37° C., is gassed with carbogen and has the following composition (in each case mM): sodium chloride: 119; potassium chloride: 4.8; calcium chloride dihydrate: 1; magnesium sulphate heptahydrate: 1.4; potassium dihydrogenphosphate: 1.2; sodium bicarbonate: 25; glucose: 10. The contractile force is determined with Statham UC2 cells, amplified and digitalized using A/D transducers (DAS-1802 HC, Keithley Instruments Munich), and recorded in parallel on linear recorders.
To produce a contraction, phenylephrine is added to the bath cumulatively in increasing concentration. After several control cycles, the substance to be investigated is added in each further run in increasing dosage in each case, and the height of the contraction achieved is compared with the height of the contraction reached in the last preceding run. This is used to calculate the concentration needed to reduce the magnitude of the control value by 50% (IC50 value). The standard administration volume is 5 μl; the DMSO content in the bath solution corresponds to 0.1%.

[2] = system: recombinant guanylate cyclase reporter cell line; assay: Effect on a recombinant guanylate cyclase reporter cell line; format: cell-based
Protocol: B-2. Effect on a Recombinant Guanylate Cyclase Reporter Cell Line
The cellular activity of the compounds according to the invention is determined using a recombinant guanylate cyclase reporter cell line, as described in F. Wunder et al., Anal. Biochem. 339, 104-112 (2005).

[3] = target: human phosphodiesterase 5 (PDE 5) (Homo sapiens (Human), UniProt O76074); assay: Inhibition of human phosphodiesterase 5 (PDE 5), SPA assay; format: biochemical; settings: PDE 5 preparation from human platelets, [8-3H] cGMP substrate
Protocol: B-6. Inhibition of Human Phosphodiesterase 5 (PDE 5)
PDE 5 preparations are obtained from human platelets by disruption (Microfluidizer®, 800 bar, 3 passes), followed by centrifugation (75 000 g, 60 min, 4° C.) and ion exchange chromatography of the supernatant on a Mono Q 10/10 column (linear sodium chloride gradient, elution with a 0.2-0.3M solution of sodium chloride in buffer (20 mM Hepes pH 7.2, 2 mM magnesium chloride). Fractions having PDE 5 activity are combined (PDE 5 preparation) and stored at −80° C.
To determine their in vitro action on human PDE 5, the test substances are dissolved in 100% DMSO and serially diluted. Typically, dilution series (1:3) from 200 μM to 0.091 μM are prepared (resulting final concentrations in the test: 4 μM to 0.0018 μM). In each case 2 μl of the diluted substance solutions are placed into the wells of microtitre plates (Isoplate-96/200W; Perkin Elmer). Subsequently, 50 μl of a dilution of the above-described PDE 5 preparation are added. The dilution of the PDE 5 preparation is chosen such that during the later incubation less than 70% of the substrate are converted (typical dilution: 1:100; dilution buffer: 50 mM Tris/hydrochloric acid pH 7.5, 8.3 mM magnesium chloride, 1.7 mM EDTA, 0.2% BSA). The substrate, [8-^3H] cyclic guanosine-3′,5′-monophosphate (1 μCi/μl; Perkin Elmer) is diluted 1:2000 with assay buffer (50 mM tris/hydrochloric acid pH 7.5, 8.3 mM magnesium chloride, 1.7 mM EDTA) to a concentration of 0.0005 μCi/μl. By addition of 50 μl (0.025 μCi) of the diluted substrate, the enzyme reaction is finally started. The test mixtures are incubated at room temperature for 60 min and the reaction is stopped by adding 25 μl of a suspension of 18 mg/ml yttrium scintillation proximity beads in water (phosphodiesterase beads for SPA assays, RPNQ 0150, Perkin Elmer). The microtitre plates are sealed with a film and left to stand at room temperature for 60 min. Subsequently, the plates are analysed for 30 s per well in a Microbeta scintillation counter (Perkin Elmer). IC50 values are determined using the graphic plot of the substance concentration against percentage PDE 5 inhibition.

SMILES	pIC50 [1]	MEC (minimum effective concentration) [2] [nM]	pIC50 [3]
O=C1Nc2nc(-c3nn(Cc4ccccc4F)c4ncc(F)cc34)nnc2C12CCCC2 [Example 9, 3′-[5-Fluoro-1-(2-fluorobenzyl)-1H-pyrazolo[3,4-b]pyridin-3-yl]spiro[cyclopentane-1,7′-pyrrolo[2,3-e][1,2,4]triazin]-6′(5′H)-one]	6.70	30	5.70
Cc1ccc(Cn2nc(-c3nnc4c(n3)NC(=O)C4(C)C)c3cc(F)cnc32)c(F)c1 [Example 10, 3-[5-Fluoro-1-(2-fluoro-4-methylbenzyl)-1H-pyrazolo[3,4-b]pyridin-3-yl]-7,7-dimethyl-5,7-dihydro-6H-pyrrolo[2,3-e][1,2,4]triazin-6-one]	6.56	300	7.82
COc1cccc(Cn2nc(-c3nnc4c(n3)NC(=O)C4(C)C)c3cc(F)cnc32)c1F [Example 11, 3-[5-Fluoro-1-(2-fluoro-3-methoxybenzyl)-1H-pyrazolo[3,4-b]pyridin-3-yl]-7,7-dimethyl-5,7-dihydro-6H-pyrrolo[2,3-e][1,2,4]triazin-6-one]	6.63	300	6.60
Cc1cccc(Cn2nc(-c3nnc4c(n3)NC(=O)C4(C)C)c3cc(F)cnc32)c1F [Example 12, 3-[5-Fluoro-1-(2-fluoro-3-methylbenzyl)-1H-pyrazolo[3,4-b]pyridin-3-yl]-7,7-dimethyl-5,7-dihydro-6H-pyrrolo[2,3-e][1,2,4]triazin-6-one]	6.17	100	6.24
CCOCCC1(C)C(=O)Nc2nc(-c3nn(Cc4ccccc4F)c4ncc(F)cc34)nnc21 (stereo not drawn) [Example 13, 7-(2-Ethoxyethyl)-3-[5-fluoro-1-(2-fluorobenzyl)-1H-pyrazolo[3,4-b]pyridin-3-yl]-7-methyl-5,7-dihydro-6H-pyrrolo[2,3-e][1,2,4]triazin-6-one]	5.80	100	6.18
CCOc1ccc(-c2nc(-c3nn(Cc4ccccc4F)c4ncccc34)nc3c2C(C)(C)C(=O)N3)cn1 [Example 14, 4-(6-Ethoxypyridin-3-yl)-2-[1-(2-fluorobenzyl)-1H-pyrazolo[3,4-b]pyridin-3-yl]-5,5-dimethyl-5,7-dihydro-6H-pyrrolo[2,3-d]pyrimidin-6-one]	6.38	300	5.70
CC1(C)C(=O)Nc2nc(-c3nn(Cc4ccccc4F)c4ncccc34)nc(-c3ccn[nH]3)c21 [Example 15, 2-[1-(2-Fluorobenzyl)-1H-pyrazolo[3,4-b]pyridin-3-yl]-5,5-dimethyl-4-(1H-pyrazol-5-yl)-5,7-dihydro-6H-pyrrolo[2,3-d]pyrimidin-6-one]	6.13	10	7.40
CC1(C)C(=O)Nc2nc(-c3nn(Cc4ccccc4F)c4ncccc34)nc(C#CC3CC3)c21 [Example 16, 4-(Cyclopropylethynyl)-2-[1-(2-fluorobenzyl)-1H-pyrazolo[3,4-b]pyridin-3-yl]-5,5-dimethyl-5,7-dihydro-6H-pyrrolo[2,3-d]pyrimidin-6-one]	6.21	30	6.39
CC1(C)C(=O)Nc2nc(-c3nn(Cc4ccccc4F)c4ncccc34)nc(CCC3CC3)c21 [Example 17, 4-(2-Cyclopropylethyl)-2-[1-(2-fluorobenzyl)-1H-pyrazolo[3,4-b]pyridin-3-yl]-5,5-dimethyl-5,7-dihydro-6H-pyrrolo[2,3-d]pyrimidin-6-one]	5.62	100	6.59
CC1(C)C(=O)Nc2nc(-c3nn(Cc4ccccc4F)c4ncccc34)nc(/C=C\C3CC3)c21 [Example 18, 4-[(Z)-2-Cyclopropylvinyl]-2-[1-(2-fluorobenzyl)-1H-pyrazolo[3,4-b]pyridin-3-yl]-5,5-dimethyl-5,7-dihydro-6H-pyrrolo[2,3-d]pyrimidin-6-one]	6.08	100	6.82
Cc1nc2c(cc1F)c(-c1ncc3c(n1)NC(=O)C3(C)C)nn2Cc1ccccc1F [Example 20, 2-[5-Fluoro-1-(2-fluorobenzyl)-6-methyl-1H-pyrazolo[3,4-b]pyridin-3-yl]-5,5-dimethyl-5,7-dihydro-6H-pyrrolo[2,3-d]pyrimidin-6-one]	6.46	100	6.04
CC(C)Cc1nc(-c2nn(Cc3ccccc3F)c3ncccc23)nc2c1C(C)(C)C(=O)N2 [Example 29, 2-[1-(2-Fluorobenzyl)-1H-pyrazolo[3,4-b]pyridin-3-yl]-4-isobutyl-5,5-dimethyl-5,7-dihydro-6H-pyrrolo[2,3-d]pyrimidin-6-one]	6.11	100	6.38
CC1(C)C(=O)Nc2nc(-c3nn(Cc4ccccc4F)c4ncccc34)nc(CCCC(F)(F)F)c21 [Example 30, 2-[1-(2-Fluorobenzyl)-1H-pyrazolo[3,4-b]pyridin-3-yl]-5,5-dimethyl-4-(4,4,4-trifluorobutyl)-5,7-dihydro-6H-pyrrolo[2,3-d]pyrimidin-6-one]	6.38	100	6.89
CC1(C)C(=O)Nc2nc(-c3nn(Cc4ccccc4F)c4ncccc34)nc(CCC(F)(F)F)c21 [Example 31, 2-[1-(2-Fluorobenzyl)-1H-pyrazolo[3,4-b]pyridin-3-yl]-5,5-dimethyl-4-(3,3,3-trifluoropropyl)-5,7-dihydro-6H-pyrrolo[2,3-d]pyrimidin-6-one]	6.51	100	6.59
CCCc1nc(-c2nn(Cc3ccccc3F)c3ncccc23)nc2c1C(C)(C)C(=O)N2 [Example 32, 2-[1-(2-Fluorobenzyl)-1H-pyrazolo[3,4-b]pyridin-3-yl]-5,5-dimethyl-4-propyl-5,7-dihydro-6H-pyrrolo[2,3-d]pyrimidin-6-one]	6.61	100	6.96
Cc1ncc(-c2nc(-c3nn(Cc4ccccc4F)c4ncccc34)nc3c2C(C)(C)C(=O)N3)s1 [Example 35, 2-[1-(2-Fluorobenzyl)-1H-pyrazolo[3,4-b]pyridin-3-yl]-5,5-dimethyl-4-(2-methyl-1,3-thiazol-5-yl)-5,7-dihydro-6H-pyrrolo[2,3-d]pyrimidin-6-one]	6.30	30	6.92
Cc1nc(C)c(-c2nc(-c3nn(Cc4ccccc4F)c4ncccc34)nc3c2C(C)(C)C(=O)N3)s1 [Example 36, 4-(2,4-Dimethyl-1,3-thiazol-5-yl)-2-[1-(2-fluorobenzyl)-1H-pyrazolo[3,4-b]pyridin-3-yl]-5,5-dimethyl-5,7-dihydro-6H-pyrrolo[2,3-d]pyrimidin-6-one]	6.66	100	5.96
Cc1nc(C(C)C)sc1-c1nc(-c2nn(Cc3ccccc3F)c3ncccc23)nc2c1C(C)(C)C(=O)N2 [Example 37, 2-[1-(2-Fluorobenzyl)-1H-pyrazolo[3,4-b]pyridin-3-yl]-4-(2-isopropyl-4-methyl-1,3-thiazol-5-yl)-5,5-dimethyl-5,7-dihydro-6H-pyrrolo[2,3-d]pyrimidin-6-one]	5.84	1000	6.30
